Results: patent US11534441B2, “MAP4K1 inhibitors” (Blueprint Medicines Corporation, priority 2020, dated 2022)
pEC50, pIC50: −log10 of the molar value.

Columns and labels:
[1] = target: MAP4K1 (HPK1) (Homo sapiens (Human), UniProt Q92918); assay: MAP4K1 (HPK1) biochemical enzymatic activity, electrophoretic mobility shift (EZReader 2), ATP at APPKM (26 μM)
In short: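 Phosphorylated and unphosphorylated peptide were separated electrophoretically, and the product/substrate peak ratio served as readout. Reactions held 0.1-15 nM HPK1, 1.5 μM fluorescent peptide and 26 μM ATP (apparent Km) in pH 7.5 HEPES buffer with MgCl2 and DTT. Compounds were tested as 4-fold, 10-point dilutions in 1% DMSO for 60-180 min at 25° C, then quenched with EDTA.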

[2] = system: expanded CD3+ T cells; assay: T cell enhancement of cytokines: IL2 measurement (HTRF) in expanded CD3+ T cells stimulated with anti-CD3/anti-CD28; format: cell-based, human; settings: IL-2 measurement
Description: T cells are isolated from whole blood of healthy donors by immunomagnetic negative selection following manufacture's protocol (StemCell Technologies, human T cell isolation kit). Purity of isolated cells is assessed by flow cytometry and yields 95-98% CD3^+ T cells. For expansion of T cells, 1×10^6 cells/well are plated in serum free cell expansion media (ThermoFisher) containing 30 U of recombinant human IL2 (R&D) and stimulated with 25 ul of CD3/CD28 beads (Invitrogen) in 24 well plates for 3-4 days. T cells are then expanded in 175 cm flasks and maintained at a cell density of 1 to 2.5×10^6 cells/ml days by addition of ⅔ of fresh media every 2-3 days. After 10-14 days, cells are frozen in BamBanker freezing media (Thermo) and stored in liquid nitrogen.
For IL2 measurement, expanded CD3^+ T cells are dispensed at 100K cells/well (cultured in X-VIVO 10 Serum-free media) and are stimulated with plate-bound anti-CD3 and soluble anti-CD28 in the presence of vehicle or compound of the disclosure at various concentrations for 24 h. As outlined in the manufacturer's protocol (Cisbio), 16 μL of conditioned media is transferred to a white 384-well low volume plate. Following a 24 h incubation with the anti-IL2 antibodies, the homogenous time resolved fluorescence (HTRF) is measured.

[3] = Homo sapiens, T-cell, class designation
[4] = Homo sapiens, T-cell, numeric value

Sequence of MAP4K1 (HPK1) (Q92918 whole entry): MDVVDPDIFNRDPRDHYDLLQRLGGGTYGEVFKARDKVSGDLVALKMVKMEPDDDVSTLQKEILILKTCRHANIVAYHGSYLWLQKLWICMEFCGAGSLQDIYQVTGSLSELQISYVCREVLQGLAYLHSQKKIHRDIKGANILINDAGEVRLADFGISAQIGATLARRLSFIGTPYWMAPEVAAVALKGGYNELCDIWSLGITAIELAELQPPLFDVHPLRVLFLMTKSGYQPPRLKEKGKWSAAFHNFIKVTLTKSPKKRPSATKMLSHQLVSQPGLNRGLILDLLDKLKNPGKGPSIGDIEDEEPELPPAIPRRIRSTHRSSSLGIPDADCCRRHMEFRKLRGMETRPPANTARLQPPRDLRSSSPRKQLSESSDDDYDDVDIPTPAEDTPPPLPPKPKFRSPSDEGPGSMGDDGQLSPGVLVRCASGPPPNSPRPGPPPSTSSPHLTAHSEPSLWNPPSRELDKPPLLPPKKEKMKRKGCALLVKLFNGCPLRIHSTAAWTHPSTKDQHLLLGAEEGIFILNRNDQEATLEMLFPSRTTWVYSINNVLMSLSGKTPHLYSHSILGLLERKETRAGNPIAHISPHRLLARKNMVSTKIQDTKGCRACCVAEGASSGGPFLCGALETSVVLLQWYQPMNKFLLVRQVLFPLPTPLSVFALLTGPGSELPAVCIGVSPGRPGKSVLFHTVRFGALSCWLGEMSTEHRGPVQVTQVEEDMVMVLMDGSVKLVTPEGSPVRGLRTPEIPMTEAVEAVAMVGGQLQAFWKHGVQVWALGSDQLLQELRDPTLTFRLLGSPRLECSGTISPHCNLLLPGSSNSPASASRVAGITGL

SMILES	pIC50 ([1]; class designation)	pIC50 ([1]; numeric value)	pEC50 ([2]; class designation)	pEC50 ([2]; numeric value)	pEC50 [2, 3]	pEC50 [2, 4]
COc1ncc(C(C)(C)N)c2cc(Nc3ccnc(C(C)(C)C)n3)ncc12 [Compound 3, 5-(2-Aminopropan-2-yl)-N-(2-(tert-butyl)pyrimidin-4-yl)-8-methoxy-2,7-naphthyridin-3-amine]	–	9.44	–	–	< 7.26	6.97
COc1ccc(C(C)(C)N)c2cc(Nc3ccnc(C(C)(C)F)n3)ncc12 [Compound 5, 5-(2-Aminopropan-2-yl)-N-(2-(2-fluoropropan-2-yl)pyrimidin-4-yl)-8-methoxyisoquinolin-3-amine]	9.00 to 9.51	9.43	–	–	7.35 to 7.45	7.43
COc1ncc(C(C)(C)N)c2cc(Nc3ccnc(C(C)(C)F)n3)ncc12 [Compound 7]	9.00 to 9.51	9.04	–	–	> 7.46	7.66
COc1ncc(C(C)(C)N)c2cc(Nc3ccc4c(n3)CCNC4=O)ncc12 [Compound 11]	9.00 to 9.51	9.48	–	–	> 7.46	7.96
COc1ncc(C(C)(C)N)c2cc(Nc3ccc4c(n3)CCOC4=O)ncc12 [Compound 12]	9.00 to 9.51	9.51	–	–	> 7.46	7.96
CC[C@H](C)n1nc(Nc2cc3c(C(C)(C)N)cnc(OC)c3cn2)ccc1=O [Compound 14]	9.00 to 9.51	9.19	7.26 to 7.35	7.29	–	–
CC[C@@H](C)n1nc(Nc2cc3c(C(C)(C)N)cnc(OC)c3cn2)ccc1=O [Compound 15]	9.00 to 9.51	–	–	–	> 7.46	7.51
CC[C@H](C)c1nc(Nc2cc3c(C(C)(C)N)cnc(OC)c3cn2)ccc1C#N [Compound 19]	> 9.52	9.52	> 7.46	7.56	–	–
CC[C@H](C)c1nc(Nc2cc3c(C(C)(C)N)cnc(OC)c3cn2)cnc1C#N [Compound 20]	9.00 to 9.51	9.14	7.26 to 7.35	7.29	–	–
CC[C@@H](C)c1nc(Nc2cc3c(C(C)(C)N)cnc(OC)c3cn2)cnc1C#N [Compound 21]	9.00 to 9.51	9.07	7.26 to 7.35	7.31	–	–
COc1ncc(C(C)(C)N)c2cc(Nc3ccc(C#N)c(C(C)(C)F)n3)ncc12 [Compound 28]	9.00 to 9.51	9.17	–	–	> 7.46	7.50
COc1ncc(C(C)(C)N)c2cc(Nc3ccc4c(n3)CC3(CC3)OC4=O)ncc12 [Compound 33]	> 9.52	9.89	–	–	> 7.46	8.03
COc1ncc(C(C)(C)N)c2cc(Nc3ccc4c(n3)CC(C)(C)CC4=O)ncc12 [Compound 34, 2-((5-(2-Aminopropan-2-yl)-8-methoxy-2,7-naphthyridin-3-yl)amino)-7,7-dimethyl-7,8-dihydroquinolin-5 (6H)-one]	> 9.52	9.62	–	–	7.35 to 7.45	7.34
CNc1ncc(C(C)(C)N)c2cc(Nc3ccc4c(n3)CC(C)(C)OC4=O)ncc12 [Compound 35]	9.00 to 9.51	9.39	> 7.46	7.63	–	–
COc1ncc(C(C)(C)N)c2cc(Nc3ccc4c(n3)CC(C)(C)OC4=O)ncc12 [Compound 36]	> 9.52	9.77	–	–	> 7.46	7.82
COc1cnc(C(C)(C)N)c2cc(Nc3ccc4c(n3)CC(C)(C)OC4=O)ncc12 [Compound 46, 2-((5-(2-Aminopropan-2-yl)-8-methoxy-2,6-naphthyridin-3-yl)amino)-7,7-dimethyl-7,8-dihydro-5H-pyrano[4,3-b]pyridin-5-one]	9.00 to 9.51	9.03	–	–	> 7.46	7.46
CNc1ncc(C(C)(C)N)c2cc(Nc3cnc(C#N)c(N4CCC[C@@H]4C)n3)ncc12 [Compound 48]	8.00 to 8.96	8.76	–	–	< 7.26	6.87
CCNc1ncc(C(C)(C)N)c2cc(Nc3ccc4c(n3)CC(C)(C)OC4=O)ncc12 [Compound 53]	9.00 to 9.51	9.44	–	–	> 7.46	7.76
CC1(C)Cc2nc(Nc3cc4c(C(C)(C)N)cnc(OC5CC5)c4cn3)ccc2C(=O)O1 [Compound 64]	9.00 to 9.51	9.36	–	–	7.35 to 7.45	7.37
CC(C)Oc1ncc(C(C)(C)N)c2cc(Nc3ccc4c(n3)CC(C)(C)OC4=O)ncc12 [Compound 69]	9.00 to 9.51	9.06	–	–	7.26 to 7.35	7.28
CC1(C)Cc2nc(Nc3cc4c(C(C)(C)N)cnc(OC5CCC5)c4cn3)ccc2C(=O)O1 [Compound 72, 2-((5-(2-Aminopropan-2-yl)-8-cyclobutoxy-2,7-naphthyridin-3-yl)amino)-7,7-dimethyl-7,8-dihydro-5H-pyrano[4,3-b]pyridin-5-one]	9.00 to 9.51	–	–	–	7.35 to 7.45	7.45

More lines, now with the values ahead:

pIC50 ([1]; class designation)	pIC50 ([1]; numeric value)	pEC50 ([2]; class designation)	pEC50 ([2]; numeric value)	pEC50 [2, 3]	pEC50 [2, 4]	SMILES
> 9.52	9.57	> 7.46	7.48	–	–	COCC(C)(N)c1cnc(OC2CC2)c2cnc(Nc3ccc4c(n3)[C@@H](C)[C@H](C)OC4=O)cc12 (single isomer, unassigned) [Compound 184, (7S,8R)-2-((5-((R)-2-Amino-1-methoxypropan-2-yl)-8-cyclopropoxy-2,7-naphthyridin-3-yl)amino)-7,8-dimethyl-7,8-dihydro-5H-pyrano[4,3-b]pyridin-5-one or (7S,8R)-2-((5-((S)-2-amino-1-methoxypropan-2-yl)-8-cyclopropoxy-2,7-naphthyridin-3-yl)amino)-7,8-dimethyl-7,8-dihydro-5H-pyrano[4,3-b]pyridin-5-one]
9.00 to 9.51	9.26	–	–	> 7.46	7.85	COc1ncc(C(C)(C)N)c2cc(Nc3ccc4c(n3)C(C)(C)OC4=O)ncc12 [Compound 26]
> 9.52	9.85	–	–	> 7.46	8.72	COc1ncc(C(C)(C)N)c2cc(Nc3ccc4c(n3)[C@@H](C)[C@H](C)OC4=O)ncc12 [Compound 37]
> 9.52	9.70	–	–	> 7.46	8.24	COc1ncc(C(C)(C)N)c2cc(Nc3ccc4c(n3)[C@H](C)[C@@H](C)OC4=O)ncc12 [Compound 38]
9.00 to 9.51	8.99	–	–	< 7.26	7.15	CCOc1ncc(C(C)(C)N)c2cc(Nc3ccc4c(n3)C(C)(C)OC4=O)ncc12 [Compound 45]
> 9.52	9.60	–	–	> 7.46	8.03	CCOc1ncc(C(C)(C)N)c2cc(Nc3ccc4c(n3)CC(C)(C)OC4=O)ncc12 [Compound 54]
> 9.52	9.74	–	–	> 7.46	7.94	COc1ncc(C(C)(C)N)c2cc(Nc3ccc4c(n3)[C@H](C)C(C)(C)OC4=O)ncc12 [Compound 55]
> 9.52	10.00	–	–	> 7.46	8.18	COc1ncc(C(C)(C)N)c2cc(Nc3ccc4c(n3)[C@@H](C)C(C)(C)OC4=O)ncc12 [Compound 56]
> 9.52	9.80	–	–	> 7.46	8.29	CCOc1ncc(C(C)(C)N)c2cc(Nc3ccc4c(n3)[C@@H](C)[C@H](C)OC4=O)ncc12 [Compound 57]
9.00 to 9.51	9.41	–	–	> 7.46	7.69	CCOc1ncc(C(C)(C)N)c2cc(Nc3ccc4c(n3)[C@H](C)[C@@H](C)OC4=O)ncc12 [Compound 58]
> 9.52	9.74	–	–	> 7.46	8.09	C[C@@H]1OC(=O)c2ccc(Nc3cc4c(C(C)(C)N)cnc(OC5CC5)c4cn3)nc2[C@H]1C [Compound 66, (7S, 8R)-2-((5-(2-aminopropan-2-yl)-8-cyclopropoxy-2,7-naphthyridin-3-yl)amino)-7,8-dimethyl-7,8-dihydro-5H-pyrano[4,3-b]pyridin-5-one]
> 9.52	9.92	–	–	> 7.46	8.21	CCOc1ncc(C(C)(C)N)c2cc(Nc3ccc4c(n3)[C@@H](C)C(C)(C)OC4=O)ncc12 [Compound 67]
> 9.52	9.57	–	–	> 7.46	7.53	CCOc1ncc(C(C)(C)N)c2cc(Nc3ccc4c(n3)[C@H](C)C(C)(C)OC4=O)ncc12 [Compound 68]
9.00 to 9.51	9.46	–	–	> 7.46	7.69	C[C@H]1c2nc(Nc3cc4c(C(C)(C)N)cnc(OC5CC5)c4cn3)ccc2C(=O)OC1(C)C [Compound 70]
> 9.52	9.96	–	–	> 7.46	8.10	C[C@@H]1c2nc(Nc3cc4c(C(C)(C)N)cnc(OC5CC5)c4cn3)ccc2C(=O)OC1(C)C [Compound 71]
